From ChEMBL document CHEMBL3885861, “Open TG-GATES”

Organism: Rattus norvegicus
Assay: Open TG-GATES - Regimen: Single
Type: toxicity, organism-based, Sprague-Dawley
Set-up: regimen Single, gender Male, age 6 weeks
Details: in vivo, po, 20 mg/kg, route gavage, dose level Low; for APTT / Bas / Eos / Fbg / Hb / Ht / Lym / MCH / MCHC / MCV / Mono / Neu / PT / Plat / RBC / Ret / WBC: tissue Blood; for KIDNEY_L / KIDNEY_R / KIDNEY_TOTAL: tissue Kidney; for LIVER: tissue Liver; for A/G / ALP / ALT / AST / BUN / CRE / Ca / Cl / DBIL / GLC / IP / K / LDH / Na / PL / RALB / TBIL / TC / TG / TP / gamma-GTP: tissue Plasma

Compound `Cn1c(=O)c2[nH]cnc2n(C)c1=O.O` [THEOPHYLLINE] has a TERMINAL_BW (9 h) of 210.6 g, an APTT (9 h) of 23.2 s and a Bas (9 h) of 0%. It also gave an Eos (9 h) of 1%, a Fbg (9 h) of 297 mg/dL and a Hb (9 h) of 13.5 g/dL. It also gave a Ht (9 h) of 40.9%, a Lym (9 h) of 78% and an MCH (9 h) of 20.4 pg. For the same compound, the MCHC (9 h) was 33%, the MCV (9 h) was 61.6 fL and the Mono (9 h) was 2.4%. For the same compound, the Neu (9 h) was 18%, the PT (9 h) was 15.6 s and the Plat (9 h) was 121.1 x10_4/uL. The RBC (9 h) was 666.6 x10_4/ul, the Ret (9 h) was 6.9% and the WBC (9 h) was 89.6 x10_2/uL. For the same compound, the KIDNEY_L (9 h) was 0.9 g, the KIDNEY_R (9 h) was 1 g and the KIDNEY_TOTAL (9 h) was 1.9 g. It also gave an LIVER (9 h) of 8.8 g, an A/G (9 h) of 1.3 and an ALP (9 h) of 1401 IU/L. For the same compound, the ALT (9 h) was 43.4 IU/L, the AST (9 h) was 73.8 IU/L and the BUN (9 h) was 11.6 mg/dL. The CRE (9 h) was 0.2 mg/dL, the Ca (9 h) was 10.9 mg/dL and the Cl (9 h) was 106 meq/L. For the same compound, the DBIL (9 h) was 0 mg/dL, the GLC (9 h) was 170.4 mg/dL and the IP (9 h) was 8.8 mg/dL. It also gave a K (9 h) of 4.3 meq/L, an LDH (9 h) of 168 IU/L and a Na (9 h) of 140.8 meq/L. It also gave a PL (9 h) of 120.8 mg/dL, an RALB (9 h) of 3.1 g/dL and a TBIL (9 h) of 0.014 mg/dL. It also gave a TC (9 h) of 66.8 mg/dL, a TG (9 h) of 51.4 mg/dL and a TP (9 h) of 5.6 g/dL. For the same compound, the gamma-GTP (9 h) was 1.2 IU/L, the TERMINAL_BW (24 h) was 224.5 g and the APTT (24 h) was 22.3 s. It also gave a Bas (24 h) of 0%, an Eos (24 h) of 1% and a Fbg (24 h) of 316.8 mg/dL. The Hb (24 h) was 13.7 g/dL, the Ht (24 h) was 40.8% and the Lym (24 h) was 80%. For the same compound, the MCH (24 h) was 20.6 pg, the MCHC (24 h) was 33.5% and the MCV (24 h) was 61.5 fL. For the same compound, the Mono (24 h) was 2.6%, the Neu (24 h) was 15.2% and the PT (24 h) was 15.9 s. It also gave a Plat (24 h) of 146.8 x10_4/uL, an RBC (24 h) of 664.2 x10_4/ul and a Ret (24 h) of 7.2%. For the same compound, the WBC (24 h) was 79.6 x10_2/uL, the KIDNEY_L (24 h) was 0.9 g and the KIDNEY_R (24 h) was 1 g. For the same compound, the KIDNEY_TOTAL (24 h) was 1.9 g, the LIVER (24 h) was 10.2 g and the A/G (24 h) was 1.2. For the same compound, the ALP (24 h) was 1615.2 IU/L, the ALT (24 h) was 38.6 IU/L and the AST (24 h) was 67.6 IU/L. The BUN (24 h) was 16.4 mg/dL, the CRE (24 h) was 0.2 mg/dL and the Ca (24 h) was 11.1 mg/dL. The Cl (24 h) was 106.2 meq/L, the DBIL (24 h) was 0 mg/dL and the GLC (24 h) was 186 mg/dL. For the same compound, the IP (24 h) was 7.8 mg/dL, the K (24 h) was 4.3 meq/L and the LDH (24 h) was 175.8 IU/L. It also gave a Na (24 h) of 142.6 meq/L, a PL (24 h) of 145.8 mg/dL and an RALB (24 h) of 3.1 g/dL. The TBIL (24 h) was 0.006 mg/dL, the TC (24 h) was 79.2 mg/dL and the TG (24 h) was 94.4 mg/dL. The TP (24 h) was 5.6 g/dL and the gamma-GTP (24 h) was 1.8 IU/L.
